According to ChEMBL document CHEMBL1201862, “PubChem BioAssay data set” (2004):
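96-well plates; 48 h exposure; 5 concentrations. Endpoints by linear interpolation between flanking doses. Not reached: highest tested concentration assigned. GI50: concentration for 50% inhibition of growth.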 Calls of active or inactive are those of the source. Rule as the data show it: active = GI50 up to about 1.1 µM and inactive = higher.

Legend:
Assay in all cases: NCI anticancer screen, dose series, 48 h
HCT-15 = tested on: HCT-15
LOX IMVI = tested on: LOX IMVI
KM12 = tested on: KM12
SK-OV-3 = tested on: SK-OV-3
NCI/ADR-RES = tested on: NCI/ADR-RES
SN12C = tested on: SN12C
RPMI-8226 = tested on: RPMI-8226
HCC 2998 = tested on: HCC 2998
OVCAR-3 = tested on: OVCAR-3
MDA-MB-231 = tested on: MDA-MB-231
MDA-MB-435 = tested on: MDA-MB-435
HL-60 = tested on: HL-60
CCRF-CEM = tested on: CCRF-CEM
PC-3 = tested on: PC-3
HOP-62 = tested on: HOP-62
786-0 = tested on: 786-0
HOP-92 = tested on: HOP-92
SNB-75 = tested on: SNB-75
SK-MEL-5 = tested on: SK-MEL-5
NCI-H23 = tested on: NCI-H23

Measured: GI50

CN(CCNC(=O)c1c[nH]c2c1ccc1ccccc12)CCNC(=O)c1c[nH]c2c1ccc1ccccc12
1.92 µM: HCT-15
inactive: LOX IMVI 1.64 µM | KM12 1.66 µM | SK-OV-3 4.23 µM | NCI/ADR-RES 4.81 µM | SN12C 3.39 µM | RPMI-8226 3.15 µM | HCC 2998 1.41 µM | OVCAR-3 4.29 µM | MDA-MB-231 1.59 µM | MDA-MB-435 1.84 µM | HL-60 1.95 µM | CCRF-CEM 1.73 µM | PC-3 2.26 µM | HOP-62 2.36 µM | 786-0 1.82 µM | HOP-92 1.75 µM | SNB-75 1.52 µM | SK-MEL-5 7.29 µM | NCI-H23 4.39 µM

CCN(CCCl)c1cc(CN(C)C)cc(NC(=O)c2ccc(C(=O)Nc3cc(CN(C)C)cc(N(CC)CCCl)c3)cc2)c1
inactive: NCI/ADR-RES 42 µM
active: LOX IMVI 0.0826 µM | KM12 0.234 µM | SK-OV-3 0.226 µM | SN12C 0.0502 µM | RPMI-8226 0.0885 µM | HCC 2998 0.0762 µM | OVCAR-3 0.384 µM | MDA-MB-231 0.323 µM | MDA-MB-435 0.162 µM | HL-60 < 0.01 µM | CCRF-CEM 0.0156 µM | PC-3 0.19 µM | HOP-62 0.133 µM | 786-0 0.069 µM | HOP-92 0.184 µM | SNB-75 0.114 µM | SK-MEL-5 0.158 µM | NCI-H23 0.0665 µM
5.69 µM: HCT-15

O=c1c2cc(I)ccc2nc(Sc2ccc([N+](=O)[O-])cc2[N+](=O)[O-])n1Cc1ccccc1
active: CCRF-CEM 0.159 µM | 786-0 0.815 µM
inactive: LOX IMVI 1.46 µM | KM12 3.32 µM | SK-OV-3 8.13 µM | NCI/ADR-RES 1.83 µM | SN12C 1.46 µM | RPMI-8226 1.74 µM | HCC 2998 2.92 µM | OVCAR-3 1.9 µM | MDA-MB-231 5.22 µM | MDA-MB-435 1.82 µM | HL-60 1.83 µM | PC-3 2.89 µM | HOP-62 2.93 µM | HOP-92 2.33 µM | SNB-75 3.91 µM | SK-MEL-5 3.48 µM | NCI-H23 3.02 µM
1.61 µM: HCT-15

COC(=O)C1(Cc2ccc(C)cc2)Cc2c(C)cccc2C1=O (stereo not given)
inactive: LOX IMVI 18.9 µM | KM12 6.75 µM | SK-OV-3 14.5 µM | NCI/ADR-RES 14.9 µM | SN12C 18.3 µM | RPMI-8226 15.1 µM | HCC 2998 16.8 µM | OVCAR-3 11.7 µM | MDA-MB-231 31.1 µM | MDA-MB-435 3.08 µM | HL-60 5.6 µM | CCRF-CEM 82 µM | PC-3 12.4 µM | HOP-62 19.3 µM | 786-0 20.5 µM | HOP-92 16.6 µM | SNB-75 26.4 µM | SK-MEL-5 12.9 µM | NCI-H23 35.3 µM
14.2 µM: HCT-15

COc1cc(CNc2nc3ccccc3nc2-c2cccs2)cc(OC)c1OC
21.9 µM: HCT-15
inactive: LOX IMVI 17.7 µM | KM12 31.4 µM | SK-OV-3 29.8 µM | NCI/ADR-RES 8.24 µM | SN12C 12.9 µM | RPMI-8226 10.5 µM | HCC 2998 39.1 µM | OVCAR-3 22.6 µM | MDA-MB-231 17.6 µM | MDA-MB-435 21.7 µM | HL-60 14 µM | CCRF-CEM 13.1 µM | PC-3 11.6 µM | HOP-62 21.4 µM | 786-0 25.2 µM | HOP-92 1.26 µM | SNB-75 > 100 µM | SK-MEL-5 12.5 µM | NCI-H23 14.5 µM

C[C@H]1CC(=O)[C@@]2(O)C#C/C=C\C#C[C@@H]3Nc4c(cc(O)c5c4C(=O)c4ccccc4C5=O)[C@]24O[C@]314
active: LOX IMVI 0.0175 µM | KM12 0.0927 µM | SK-OV-3 0.0171 µM | NCI/ADR-RES 0.00914 µM | SN12C 0.00296 µM | RPMI-8226 0.00356 µM | HCC 2998 0.00647 µM | OVCAR-3 0.136 µM | MDA-MB-231 0.0873 µM | MDA-MB-435 0.0509 µM | HL-60 < 0.001 µM | CCRF-CEM 0.00106 µM | PC-3 0.259 µM | HOP-62 0.00159 µM | 786-0 0.0128 µM | HOP-92 0.0157 µM | SNB-75 0.0316 µM | SK-MEL-5 0.00266 µM | NCI-H23 0.00461 µM
0.0248 µM: HCT-15

C=CCc1cccc2cc(C(=O)NC3CCCCC3)c(=N)oc12
inactive: LOX IMVI 15.4 µM | KM12 16.9 µM | SK-OV-3 24 µM | NCI/ADR-RES 27.4 µM | SN12C 14.9 µM | RPMI-8226 45.6 µM | HCC 2998 16.3 µM | OVCAR-3 14.1 µM | MDA-MB-231 16 µM | MDA-MB-435 20.7 µM | HL-60 41 µM | CCRF-CEM 17.5 µM | PC-3 16.1 µM | HOP-62 18.9 µM | 786-0 14.5 µM | HOP-92 35 µM | SNB-75 15.8 µM | SK-MEL-5 14 µM | NCI-H23 19.9 µM
14.1 µM: HCT-15

Cc1ccc(S(=O)(=O)N(CC(O)COc2ccccc2)c2ccc(F)cc2F)cc1 (stereo not given)
inactive: LOX IMVI 14.2 µM | KM12 20 µM | SK-OV-3 18.7 µM | NCI/ADR-RES 15.9 µM | SN12C 15.3 µM | RPMI-8226 13.5 µM | HCC 2998 14.1 µM | OVCAR-3 15.3 µM | MDA-MB-231 17.4 µM | MDA-MB-435 16.1 µM | HL-60 15.7 µM | CCRF-CEM 18.9 µM | PC-3 12.8 µM | HOP-62 15.5 µM | 786-0 16.8 µM | SNB-75 14.8 µM | SK-MEL-5 14.7 µM | NCI-H23 13.9 µM
17.1 µM: HCT-15
active: HOP-92 0.122 µM

CCCC(=O)OC[n+]1cccc(-c2c(COC(=O)NC(C)C)c(COC(=O)NC(C)C)c3n2CCC3)c1
> 93.3 µM: HCT-15
inactive: LOX IMVI 35.2 µM | KM12 > 100 µM | SK-OV-3 > 100 µM | NCI/ADR-RES 61.8 µM | SN12C 37.8 µM | RPMI-8226 32.3 µM | HCC 2998 > 100 µM | OVCAR-3 > 77.8 µM | MDA-MB-231 > 74.8 µM | MDA-MB-435 98.2 µM | HL-60 15.7 µM | CCRF-CEM 9.98 µM | PC-3 > 86.7 µM | HOP-62 49.8 µM | 786-0 37.5 µM | HOP-92 32.4 µM | SNB-75 71.3 µM | SK-MEL-5 69.7 µM | NCI-H23 34.8 µM

OCSc1nn(CO)c(=S)s1
18.3 µM: HCT-15
inactive: LOX IMVI 18 µM | KM12 18.7 µM | SK-OV-3 34.4 µM | NCI/ADR-RES 21.1 µM | SN12C 21.2 µM | RPMI-8226 25.4 µM | HCC 2998 22.1 µM | OVCAR-3 24 µM | MDA-MB-231 28.1 µM | MDA-MB-435 18.4 µM | HL-60 18 µM | CCRF-CEM 6.79 µM | PC-3 24.4 µM | HOP-62 21.8 µM | 786-0 23.1 µM | HOP-92 11.4 µM | SNB-75 24.4 µM | SK-MEL-5 31.8 µM | NCI-H23 20 µM

Cc1ccc2c(n1)C(=O)c1cc(C)c(C)cc1C2=O
75.9 µM: HCT-15
inactive: LOX IMVI 68.4 µM | KM12 53.2 µM | SK-OV-3 > 100 µM | NCI/ADR-RES 44 µM | SN12C 56.9 µM | RPMI-8226 > 100 µM | HCC 2998 98.2 µM | OVCAR-3 20.5 µM | MDA-MB-231 45.6 µM | MDA-MB-435 85.3 µM | HL-60 36 µM | CCRF-CEM > 100 µM | PC-3 > 100 µM | HOP-62 > 100 µM | 786-0 62.1 µM | HOP-92 43.1 µM | SNB-75 27.5 µM | SK-MEL-5 12.4 µM | NCI-H23 > 100 µM

O=C(C=P(c1ccccc1)(c1ccccc1)c1ccccc1)c1ccc(-c2cccc([N+](=O)[O-])c2)s1
41.1 µM: HCT-15
inactive: LOX IMVI 67 µM | KM12 42 µM | SK-OV-3 36.1 µM | NCI/ADR-RES 25.8 µM | SN12C 68.7 µM | RPMI-8226 19.5 µM | HCC 2998 51.1 µM | OVCAR-3 32.7 µM | MDA-MB-231 > 100 µM | MDA-MB-435 51.5 µM | HL-60 26 µM | CCRF-CEM 30.6 µM | PC-3 24.9 µM | HOP-62 > 100 µM | 786-0 > 100 µM | HOP-92 16.4 µM | SNB-75 24 µM | SK-MEL-5 29.9 µM | NCI-H23 77.6 µM

CC(=O)Nc1ccc(-c2nc3cc(Cl)ccc3o2)cc1
> 50 µM: HCT-15
inactive: LOX IMVI > 50 µM | KM12 > 50 µM | SK-OV-3 > 50 µM | NCI/ADR-RES > 50 µM | SN12C > 50 µM | RPMI-8226 > 50 µM | HCC 2998 40.1 µM | OVCAR-3 > 50 µM | MDA-MB-231 > 50 µM | MDA-MB-435 > 50 µM | HL-60 40.9 µM | CCRF-CEM > 50 µM | PC-3 > 50 µM | HOP-62 > 50 µM | 786-0 > 50 µM | HOP-92 > 50 µM | SNB-75 32.5 µM | SK-MEL-5 20.4 µM | NCI-H23 > 50 µM

C/C=C/C=C\C1OC(O)([C@H](CC)C(=O)NC/C=C/C=C(\C)[C@H](OC)C(C)C2OC(\C=C/C=C/C=C(\C)C(=O)c3c(O)ccn(C)c3=O)[C@H](O)[C@@H]2O)C(O)C(O)C1(C)C (stereo not given in full)
> 100 µM: HCT-15
inactive: LOX IMVI 69.5 µM | KM12 > 100 µM | SK-OV-3 > 100 µM | NCI/ADR-RES > 100 µM | SN12C 75.3 µM | RPMI-8226 20.3 µM | HCC 2998 > 100 µM | OVCAR-3 > 100 µM | MDA-MB-231 > 100 µM | MDA-MB-435 > 100 µM | HL-60 54.3 µM | CCRF-CEM 38.4 µM | PC-3 64.3 µM | HOP-62 > 100 µM | 786-0 71 µM | HOP-92 > 100 µM | SNB-75 > 100 µM | SK-MEL-5 88.1 µM | NCI-H23 > 100 µM
